In data set [1] the test system is HCT116 human cancer cell line (colorectal cancer). The data set can be described thus: Cytotoxicity on HCT116 human cancer cell line (resazurin, 72 h). Type of data set: cell-based. The source says: (§1) Brown oil, 89%. Rf 0.3 (Cyclohexane/EtOAc, 7/3). IR (neat, cm^−1): 1609, 1593, 1564, 1428, 1205, 1157. ^1H NMR (300 MHz, CDCl3): 8.08 (d, 1H, J=8.2 Hz), 7.90 (d, 1H, J=8.4 Hz), 7.77-7.72 (ddd, 1H, J=8.2 Hz, J=6.9 Hz, J=1.3 Hz), 7.44 (ddd, 1H, J=8.3 Hz, J=7.0 Hz, J=1.0 Hz), 6.49 (d, 2H, J=2.2 Hz), 6.27 (t, 1H, J=2.2 Hz), 4.90 (q, 1H, J=6.9 Hz), 3.73 (s, 6H), 2.91 (s, 3H), 1.78 (d, 3H, J=6.9 Hz). ^13C NMR (75 MHz, CDCl3): 171.8, 163.8, 161.0 (2C), 150.7, 146.9, 133.2, 128.5, 126.6, 124.7, 121.6, 106.2 (2C), 98.0, 55.4 (2C), 43.4, 26.9, 21.1. m/z MS (APCI^+): 309 (M+H)^+. Cytotoxicity Protocol. U87, H1299 and MDA-MB231 cells are grown in Dulbecco minimal essential medium (DMEM) containing 4.5 g/L glucose and supplemented with 10% foetal calf serum and 1% glutamine. K562 and HCT116 cells are grown in RPMI 1640 medium containing 10% foetal calf serum and 1% glutamine. All the cell lines are maintained in culture at 37° C. in a humid atmosphere containing 5% CO2. The cells are inoculated in 96-well culture plates in an amount of 5000 cells per well in 50 μL of culture medium. After 24 hours of culture, the molecule to be tested, dissolved in DMSO and diluted 1/1000 in suitable culture medium, is added in each well in an amount of 50 μL per well. After 72 hours of incubation, 20 μL of resazurin is added in each well. After 1 hour of incubation, emitted fluorescence is measured at 590 nm after excitation at 560 nm using the Victor fluorescence reader (Perkin-Elmer, USA). Each concentration is tested three times and each experiment is repeated three times. Protocol for Inhibition of Polymerisation of Tubulin. When tubulin is placed at a temperature of 0° C., it is in the form of free dimers. […] The IPT of the various synthesized analogues was determined on a soluble tubulin according to the method of Shelanski^7 from sheep brains where it constitutes 20 to 25% of soluble proteins. The “antitubulin” activity is evaluated according to the method of Gaskin^8 by measuring turbidity, which is proportional to the microtubule concentration in the suspension. Turbidity is measured by absorption of the suspension at 350 nm using a spectrophotometer fitted with a cell thermostatically-controlled at 37° C. The various samples were dissolved in DMSO and incubated 10 minutes at 37° C. then 5 minutes at 0° C. The tubulin assembly and disassembly curves are obtained by absorption kinetics at 350 nm as a function of time. The IC50 determined graphically is defined as the concentration of inhibitor necessary to decrease by 50% the maximum rate of assembly of the control tubulin. In Vitro Biological Study of Compounds of the Present Invention
The cytotoxic activity of the compounds was studied in vitro principally on the HCT116 human cancer cell line (colorectal cancer). The line selected for this study was incubated at 37° C. in the presence of one of the compounds added in the culture medium at various concentrations. The inhibitory concentration inducing the death of 50% of the cells (IC50) was determined after 72 hours of incubation (Table 1) for each compound. The set of experiments carried out made it possible to determine the degree of toxicity of the compounds tested by taking isoCA-4 as the reference. […] Lastly, when these first results are examined, it appears that the reduction of the double bond located between the two aromatic nuclei yields “reduced” type II derivatives about 10 times less cytotoxic than their precursors I as we had already noted during the reduction of isoCA-4 derivatives to isoerianin-type derivatives.

Another data set deals with tubulin. The data set can be described thus: Inhibition of polymerisation of tubulin (IPT). The conditions noted are these: Table 3; inhibition of 50% of the maximum rate of assembly; tubulin 10 μM; read-out: IPT (IC50). Type of data set: biochemical, sheep.
From the text: as §1
The most cytotoxic compounds were selected for tests of inhibition of polymerisation of tubulin. These tests were carried out under the direction of Dr J. Dubois at Gif-sur-Yvette, France. Tubulin is purified from ewe brains according to the method of Shelanski^9 by two assembly-disassembly cycles. The stock solution (15-20 mg/mL), stored at −196° C., is thawed and diluted in assembly buffer (0.1 M MES, 0.5 mM MgCl2, 1 mM EGTA, and 1 mM GTP, pH 6.6) to have a final concentration of 10 μM. Tubulin assembly is monitored by fluorescence on 96-well plates according to the method of Barron et al.^10 Inhibitor (DMSO, 1 μL) is added to the tubulin solution (10 μM, 100 μL per well) and the solution is incubated 45 minutes at room temperature. GTP (1 mM final) is then added, the solution is mixed rapidly and fluorescence (λex=350 nm, λem=440 nm) is measured on a Wallac Victor fluorometer (Perkin Elmer). The inhibition of 50% of the maximum rate of assembly (IC50) is determined in duplicate or triplicate on 10 concentrations bracketing the IC50.

The subject of data set [2] is K562 (chronic myeloid leukaemia). Put plainly: Cytotoxicity on K562 line (resazurin, 72 h). The data set is classed as cell-based. The note with it: Homo sapiens.
From the text: as §1
(§2) Compounds I-15, I-16 and I-19 were also evaluated on a K562 chronic myeloid leukaemia line and a K562R imatinib-resistant chronic myeloid leukaemia line.

For data set [3], the system named is K562R imatinib-resistant chronic myeloid leukaemia line. The data set can be described thus: Cytotoxicity on K562R line (72 h). Type of data set: cell-based. The conditions noted are these: Homo sapiens, K-562R; Table 2; 50% cell death after 72 hours of incubation.
From the text: Brown oil, 89%. Rf 0.3 (Cyclohexane/EtOAc, 7/3). IR (neat, cm^−1): 1609, 1593, 1564, 1428, 1205, 1157. ^1H NMR (300 MHz, CDCl3): 8.08 (d, 1H, J=8.2 Hz), 7.90 (d, 1H, J=8.4 Hz), 7.77-7.72 (ddd, 1H, J=8.2 Hz, J=6.9 Hz, J=1.3 Hz), 7.44 (ddd, 1H, J=8.3 Hz, J=7.0 Hz, J=1.0 Hz), 6.49 (d, 2H, J=2.2 Hz), 6.27 (t, 1H, J=2.2 Hz), 4.90 (q, 1H, J=6.9 Hz), 3.73 (s, 6H), 2.91 (s, 3H), 1.78 (d, 3H, J=6.9 Hz). ^13C NMR (75 MHz, CDCl3): 171.8, 163.8, 161.0 (2C), 150.7, 146.9, 133.2, 128.5, 126.6, 124.7, 121.6, 106.2 (2C), 98.0, 55.4 (2C), 43.4, 26.9, 21.1. m/z MS (APCI^+): 309 (M+H)^+. Cytotoxicity Protocol. U87, H1299 and MDA-MB231 cells are grown in Dulbecco minimal essential medium (DMEM) containing 4.5 g/L glucose and supplemented with 10% foetal calf serum and 1% glutamine. K562 and HCT116 cells are grown in RPMI 1640 medium containing 10% foetal calf serum and 1% glutamine. All the cell lines are maintained in culture at 37° C. in a humid atmosphere containing 5% CO2. The cells are inoculated in 96-well culture plates in an amount of 5000 cells per well in 50 μL of culture medium. After 24 hours of culture, the molecule to be tested, dissolved in DMSO and diluted 1/1000 in suitable culture medium, is added in each well in an amount of 50 μL per well. […] After 1 hour of incubation, emitted fluorescence is measured at 590 nm after excitation at 560 nm using the Victor fluorescence reader (Perkin-Elmer, USA). […] The IPT of the various synthesized analogues was determined on a soluble tubulin according to the method of Shelanski^7 from sheep brains where it constitutes 20 to 25% of soluble proteins. The “antitubulin” activity is evaluated according to the method of Gaskin^8 by measuring turbidity, which is proportional to the microtubule concentration in the suspension. Turbidity is measured by absorption of the suspension at 350 nm using a spectrophotometer fitted with a cell thermostatically-controlled at 37° C. […]
as §2

For data set [4], the system named is H1299 (non-small-cell lung cancer). The data set can be described thus: Cytotoxicity on H1299 line (resazurin, 72 h). The data set is classed as cell-based. The note with it: Homo sapiens, NCI-H1299.
From the text: as §1, §2

Setting [5] is: Homo sapiens, HCT-116, Table 1, concentration inducing 50% cell death after 72 hours of incubation, read-out: HCT116 IC50.
The mark [6] stands for this setting: K562, Table 2, 50% cell death after 72 hours of incubation, read-out: K562 IC50.
[7] abbreviates: Homo sapiens, HCT-116, 72 hours of incubation, read-out: IC50 (cytotoxicity, HCT116).
Setting [8] is: Homo sapiens, HCT-116, Table 2, 50% cell death after 72 hours of incubation, read-out: HCT116 IC50.

Nine compounds from US10653694B2, “Cytotoxic compounds which are inhibitors of the polymerisation of tubulin” (CENTRE NATIONAL DE LA RECHERCHE SCIENTIFIQUE (CNRS), priority 2014, dated 2020) can be followed below.

Like-named read-outs stand apart in the source and are kept apart here.

Regarding `C=C(c1ccc(OC)cc1)c1cc(Cl)c2ccccc2n1` [Compound I-17, 4-Chloro-2-(1-(4-methoxyphenyl)vinyl)quinoline], the IC50 in data set [1] (setting [5]) is 95 nM.
Take `C=C(c1ccc(OC)cc1)c1cc(C)nc2ccccc12` [Compound I-19, 4-(1-(4-Methoxyphenyl)vinyl)-2-methylquinoline]: the IC50 in the data set on tubulin was 1090 nM; in data set [2] (setting [6]), 17 nM; in data set [1] (setting [7]), < 20 nM; in data set [1] (setting [5]), ≤ 1 nM; in data set [1] (Table 2, 50% cell death after 72 hours of incubation, read-out: HCT116 IC50), ≤ 1 nM; in data set [3], 0.7 nM. Moreover, the “cytotoxic activities (in words)” value in data set [1] (cell line not given) is recorded as “sub-nanomolar”.
As to `C=C(c1ccc(OC)c(OC)c1)c1nc(Cl)nc2ccccc12` [Compound I-11, 2-Chloro-4-[1-(3,4-dimethoxy-phenyl)-vinyl]-quinazoline], the IC50 in data set [1] (setting [5]) worked out at 700 nM.
For the compound `C=C(c1ccc(OC)cc1)c1cc(C#N)nc2ccccc12` [Compound I-16, 4-(1-(4-Methoxyphenyl)vinyl)quinoline-2-carbonitrile], the IC50 in the data set with tubulin is 960 nM; in data set [2] (setting [6]), 9 nM; in data set [1] (setting [7]), < 20 nM; in data set [1] (setting [8]), 1.6 nM; in data set [3], ≤ 1 nM.
`C=C(c1ccc2ccccc2c1)c1nc(C)nc2ccccc12` [Compound I-8, 2-Methyl-4-(1-(naphthalen-2-yl)vinyl)quinazoline] returned a melting point of 113.6 °C. The IC50 with tubulin was determined as 2200 nM. Also, in data set [1] (setting [5]), the 50% inhibitory concentration (IC50) was determined as 130 nM.
Turning to `C=C(c1ccc(OC(F)(F)F)cc1)c1nc(C)nc2ccccc12` [Compound I-3, 2-Methyl-4-(1-(4-(trifluoromethoxy)phenyl)vinyl)quinazoline], the IC50 in data set [1] (setting [5]) came out at 2300 nM.
Take `C=C(c1ccc(OC)cc1)c1nc(Cl)nc2ccccc12` [Compound I-10, 2-Chloro-4-[1-(4-methoxy-phenyl)-vinyl]-quinazoline]: the IC50 in the data set with tubulin was 1900 nM; in data set [2] (setting [6]) it was 38 nM; in data set [2] (range given jointly for K562 and H1299 lines, read-out: IC50 (cytotoxicity, K562)), 22 to 38 nM; in data set [1] (setting [7]), 40 nM; in data set [1] (setting [5]), 34 nM; in data set [4] (Table 2, 50% cell death after 72 hours of incubation, read-out: H1299 IC50), 25 nM. For the same compound, the IC50 in data set [4] (range given jointly for K562 and H1299 lines, read-out: IC50 (cytotoxicity, H1299)) fell in the range of 22 to 38 nM.
Take `C=C(c1ccc(SC)cc1)c1nc(C)nc2ccccc12` [Compound I-4, 2-Methyl-4-(1-(4-(methylthio)phenyl)vinyl)quinazoline]: the IC50 in the data set on tubulin was 2900 nM; in data set [1] (setting [5]), 52 nM.
For the compound `C=C(c1ccc(OC)c(C#CCO)c1)c1nc(C)nc2ccccc12` [Compound I-15, 3-(2-Methoxy-5-(1-(2-methylquinazolin-4-yl)vinyl)phenyl)prop-2-yn-1-ol], the IC50 was 1200 nM with tubulin; 8 nM in data set [2] (setting [6]); < 20 nM in data set [1] (setting [7]); 1.5 nM in data set [1] (setting [8]); ≤ 1 nM in data set [3].
